Several values for one entry are separate records, joined by “and”; a condition that tells them apart may be missing. Identical values can stand only once. Each block holds one molecule with its values, some of them ahead of it.
Tested on: 276233-004-R-J1-PDC complex spheroid viability
Test: Anticancer human tumor 276233-004-R-J1-PDC patient-derived colon adenocarcinoma cell line growth inhibition [GQUAD]
Settings: for viability, T/C: stronger effect = lower value
Source text: DNA G-quadruplex Stabilizer Agents in Combinations in Complex Spheroids
A high-throughput screen of multi-cell type tumor spheroids was designed to identify active combinations of DNA G-quadruplex stabilizer agents and targeted small molecules. Complex spheroids include a stromal component modeled by human endothelial cells (HUVEC) and fibroblasts modeled by human mesenchymal stem cells (MSCs). The concentration ranges selected for each drug and investigational agent were based upon clinically achievable concentrations if the clinical Cmax of the agent was known.
Compounds. The drugs and investigational agents: pidnarulex (CX-5461; NSC782164), APTO-253 (NSC789042), BRACO-19 (NSC847499), peposertib (NSC802822), ceralasertib (NSC780249), elimusertib (NSC800525), camonsertib (NSC841442), AZD-1390 (NSC803789), olaparib (NSC753686), talazoparib (NSC767125), ART-558 (NSC835418), sotorasib (NSC818433), MRTX-1133 (NSC836407), SN-38 (NSC673596), topotecan (NSC609699), etoposide (NSC141540), doxorubicin (NSC123127), gemcitabine (NSC613327), 5-fluorouracil (NSC19893), paclitaxel (NSC125973), vemurafenib (NSC761431), panobinostat (NSC761190), R-306465 (JNJ-16241199; NSC773264), adavosertib (NSC754352), TP-3654 (NSC805149), carboplatin (NSC241240), KSQ-4279 (NSC840948), and staurosporine (NSC755774) were obtained from the National Cancer Institute (NCI) Developmental Therapeutics Program Chemical Repository (34). The FDA-approved anticancer drug set is available from the NCI Developmental Therapeutics Program. […] The stock solutions were prepared in dimethyl sulfoxide (DMSO, Sigma-Aldrich, St. Louis, MO, cat. D2650) at 800-fold the tested concentration and stored at -70 degrees C prior to their use. All drugs and investigational agents were tested over a range starting from a high concentration at or near the clinical Cmax and decreasing in half-log increments. If the clinical Cmax for an agent had not been determined, the highest concentration tested was 10 microM.
2.3 Cell Culture. All cells were maintained in an incubator at 37 degrees C and 5% CO2 with 95% humidity. The PDC lines were cultured according to standard operating procedures established by the NCI PDMR. All PDCs were thawed and cultured in Matrigel-coated flasks prepared with a working solution of 1X Ham's F-12 nutrient mix, without supplementation (Invitrogen, cat. 11765054), 100 U/mL penicillin-streptomycin (Invitrogen, cat. 15140122), and 2.5% Matrigel (Corning Inc., cat. 354248) for the first three passages. The 857933-349-R-J2-PDC line was cultured in 6C/Colon 1B media, which includes advanced DMEM/F-12 (Thermo Fisher Scientific, cat. 12634028), 10 mM HEPES (Thermo Fisher Scientific, cat. 15630080), 1X GlutaMAX supplement (Thermo Fisher Scientific, cat. 35050061), 0.1 mg/mL primocin (InvivoGen, cat. ant-pm-2), 10% defined fetal bovine serum, heat inactivated (HyClone Laboratories Inc., cat. SH30070.03HI), 50% L-WRN conditioned media (ATCC, cat. CRL-3276), 1.25 mM N-Acetyl-L-cysteine (Sigma-Aldrich, cat. A9165), 10 mM nicotinamide (Sigma-Aldrich, cat. N0636), 1X B-27 supplement (Thermo Fisher Scientific, cat. 17504044), 1X N-2 supplement (Thermo Fisher Scientific, cat. 17502048), 10 microM Y-27632 dihydrochloride (Tocris Bioscience, cat. 1254), and 50 ng/mL human EGF recombinant protein (Thermo Fisher Scientific, cat. PHG0311). The 485176-168-R4-J1-PDC line was cultured in Panc media, which includes all 6C/Colon 1B media components plus 100 ng/mL human FGF-10 (Thermo Fisher Scientific, cat. 100-26), 500 nM SB-431542 (Selleckchem, cat. S1067), and gastrin (Tocris, cat. 3006).
[…]
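Note: spheroids exposed to drugs for seven days.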
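Throughout, for viability, T/C: 100% = DMSO vehicle control viability.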

Structure (SMILES): CCc1c2c(nc3ccc(O)cc13)-c1cc3c(c(=O)n1C2)COC(=O)[C@]3(O)CC
viability, T/C (compound 0.000999 µM): 98.6% and 89.7% and 104% | viability, T/C (compound 0.00316 µM): 93.7% and 94.5% and 92.8% | viability, T/C (compound 0.00999 µM): 120% and 88.8% and 82.7% | viability, T/C (compound 0.0316 µM): 89.3% and 117% and 90.7% | viability, T/C (compound 0.0999 µM): 98.1% and 103% and 110% | viability, T/C (compound 0.316 µM): 92.2% and 108% and 95.1% | IC50 (curve of compound): > 0.316 µM

Structure (SMILES): Cc1cccc(N(C)C(=O)C2C(O)CCN2c2nc(C)cc(C(F)(F)F)c2C#N)c1 (stereo not given)
viability, T/C (compound 0.0316 µM): 92.6% and 89.1% and 85.7% | viability, T/C (compound 0.1 µM): 69.5% and 106% and 83.8% | viability, T/C (compound 0.316 µM): 74.5% and 101% and 74.6% | viability, T/C (compound 1 µM): 94% and 109% and 85.7% | viability, T/C (compound 3.16 µM): 99.6% and 74.3% and 84.3% | viability, T/C (compound 10 µM): 111% and 91.5% and 99.2% | IC50 (curve of compound): > 10 µM

Structure (SMILES): COc1cc(C2c3cc4c(cc3C(OC3OC5COC(C)OC5C(O)C3O)C3COC(=O)C23)OCO4)cc(OC)c1O (stereo not given)
viability, T/C (compound 0.0316 µM): 94.5% and 86% and 83.5% | viability, T/C (compound 0.1 µM): 85% and 92% and 84.5% | viability, T/C (compound 0.316 µM): 88% and 89.3% and 89.8% | viability, T/C (compound 1 µM): 81.9% and 83.7% and 91% | viability, T/C (compound 3.16 µM): 99% and 101% and 88.6% | viability, T/C (compound 10 µM): 92.4% and 79.9% and 85% | IC50 (curve of compound): > 10 µM

Structure (SMILES): Cc1[nH]c2ccc(F)cc2c1-c1nc2c3cccnc3c3ncccc3c2[nH]1
viability, T/C (compound 0.316 µM): 80.8% [middle of 12 runs] | viability, T/C (compound 1 µM): 73.4% [middle of 12 runs] | viability, T/C (compound 10 µM): 44.4% [middle of 12 runs] | IC50 (compound alone, run of 02/20/2024): 2.51 µM [middle of 8 runs] | IC50 (compound alone, run of 02/26/2024): 1.35 µM [middle of 4 runs]

The next lines start with results.

IC50 (curve of compound): > 0.316 µM
Structure (SMILES): CC[C@@]1(O)C(=O)OCc2c1cc1n(c2=O)Cc2cc3c(CN(C)C)c(O)ccc3nc2-1
viability, T/C (compound 0.000999 µM): 102% and 92.8% and 107% | viability, T/C (compound 0.00316 µM): 95.6% and 106% and 94.4% | viability, T/C (compound 0.00999 µM): 89.3% and 96.7% and 96.9% | viability, T/C (compound 0.0316 µM): 97.6% and 112% and 79.8% | viability, T/C (compound 0.0999 µM): 97.6% and 102% and 99.8% | viability, T/C (compound 0.316 µM): 90.9% and 107% and 98.6%

IC50 (curve of first compound, second compound 0.0316 µM): > 10 µM | IC50 (curve of first compound, second compound 0.1 µM): > 10 µM | IC50 (curve of first compound, second compound 0.316 µM): > 10 µM | IC50 (curve of first compound, second compound 1 µM): > 10 µM | IC50 (curve of first compound, second compound 3.16 µM): > 10 µM | IC50 (curve of first compound, second compound 10 µM): > 10 µM
Structure (SMILES): Nc1ccn(C2OC(CO)C(O)C2(F)F)c(=O)n1 (stereo not given) + Cc1cnc(CNC(=O)c2c(=O)c3ccc(N4CCCN(C)CC4)nc3n3c2sc2ccccc23)cn1
viability, T/C (second compound 0.0316 µM, first compound 0.0316 µM): 82.7% | viability, T/C (second compound 0.0316 µM, first compound 0.1 µM): 77.7% | viability, T/C (second compound 0.0316 µM, first compound 0.316 µM): 83.8% | viability, T/C (second compound 0.0316 µM, first compound 1 µM): 81.1% | viability, T/C (second compound 0.0316 µM, first compound 3.16 µM): 88.4% | viability, T/C (second compound 0.0316 µM, first compound 10 µM): 72.6% | viability, T/C (second compound 0.1 µM, first compound 0.0316 µM): 89.8% | viability, T/C (second compound 0.1 µM, first compound 0.1 µM): 87.9% | viability, T/C (second compound 0.1 µM, first compound 0.316 µM): 80.7% | viability, T/C (second compound 0.1 µM, first compound 1 µM): 93.3% | viability, T/C (second compound 0.1 µM, first compound 3.16 µM): 84.4% | viability, T/C (second compound 0.1 µM, first compound 10 µM): 79.9% | viability, T/C (second compound 0.316 µM, first compound 0.0316 µM): 80% | viability, T/C (second compound 0.316 µM, first compound 0.1 µM): 97.9% | viability, T/C (second compound 0.316 µM, first compound 0.316 µM): 86.6% | viability, T/C (second compound 0.316 µM, first compound 1 µM): 80.4% | viability, T/C (second compound 0.316 µM, first compound 3.16 µM): 77% | viability, T/C (second compound 0.316 µM, first compound 10 µM): 76.7% | viability, T/C (second compound 1 µM, first compound 0.0316 µM): 94.2% | viability, T/C (second compound 1 µM, first compound 0.1 µM): 78.8% | viability, T/C (second compound 1 µM, first compound 0.316 µM): 105% | viability, T/C (second compound 1 µM, first compound 1 µM): 83.8% | viability, T/C (second compound 1 µM, first compound 3.16 µM): 82.5% | viability, T/C (second compound 1 µM, first compound 10 µM): 79.9% | viability, T/C (second compound 3.16 µM, first compound 0.0316 µM): 80% | viability, T/C (second compound 3.16 µM, first compound 0.1 µM): 68% | viability, T/C (second compound 3.16 µM, first compound 0.316 µM): 91.8% | viability, T/C (second compound 3.16 µM, first compound 1 µM): 73.2% | viability, T/C (second compound 3.16 µM, first compound 3.16 µM): 66.3% | viability, T/C (second compound 3.16 µM, first compound 10 µM): 62.3% | viability, T/C (second compound 10 µM, first compound 0.0316 µM): 65.8% | viability, T/C (second compound 10 µM, first compound 0.1 µM): 75.2% | viability, T/C (second compound 10 µM, first compound 0.316 µM): 69.5% | viability, T/C (second compound 10 µM, first compound 1 µM): 78.2% | viability, T/C (second compound 10 µM, first compound 3.16 µM): 65.2% | viability, T/C (second compound 10 µM, first compound 10 µM): 57.5%

Reference: PubChem BioAssay AID2060496 (Molecular Pharmacology Branch, DTP, NCI, 2025)
